{"source": "patent EP0013784B1", "about": "“C-Substituted naphthalenemonosulfonic ureides, process for their preparation and pharmaceutical compositions containing them” (AMERICAN CYANAMID COMPANY, priority 1979, dated 1980)", "key": {"[1]": {"molecular_target": "T1, human skin fibroblast collagenase (Homo sapiens, UniProt P03956)", "T1 construct": "endogenous in cells", "T1 sequence (P03956 100-469)": "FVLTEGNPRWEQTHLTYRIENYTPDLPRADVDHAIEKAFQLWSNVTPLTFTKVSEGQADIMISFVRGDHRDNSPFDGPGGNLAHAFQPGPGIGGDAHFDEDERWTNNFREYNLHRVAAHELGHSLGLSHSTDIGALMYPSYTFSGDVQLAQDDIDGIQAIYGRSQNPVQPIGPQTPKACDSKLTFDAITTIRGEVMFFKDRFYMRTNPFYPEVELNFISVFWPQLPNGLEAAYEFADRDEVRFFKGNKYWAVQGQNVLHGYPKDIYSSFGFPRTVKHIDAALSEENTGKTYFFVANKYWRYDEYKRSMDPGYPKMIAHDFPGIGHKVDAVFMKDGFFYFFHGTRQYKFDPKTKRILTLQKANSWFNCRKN", "assay": "Collagenase Assay, Test Code 006 (degradation of 14C-labeled native collagen fibrils)", "type": "biochemical", "conditions": "test conc.: 30 μg./ml.", "method": "(§1) An active inhibitor would inhibit the degradation of the collagen fibril; (iii) Leukocyte Neutral Proteases Inhibitor Assay - This test measures the ability of neutral proteases derived from human leukocytes to degrade radiolabeled proteoglycans entrapped in polyacrylamide beads.\nCollagenase assays were performed by a modification of the method of Harper, et al., Biochem.,-10, 3035 (1971). In a typical assay (total volume of 0.45 ml.), 100 pI. of the activated enzyme was added to the ^14C-labeled collagen fibrils (250 µl.) followed by 100 pl. of 50 mM cacodylate, pH 7.4, containing 5 mM calcium chloride. After incubation at 37°C. for 16 hours, the tubes were centrifuged in a Beckman microfuge for five minutes at full speed. An aliquot (200 pl.) of the supernatant, representing collagenase digestion products of the fibril, was assayed for radioactivity. […] Appropriate blanks and trypsin controls were run in parallel.\nThe activities are expressed as % inhibition (lowering) of collagenase activity, i.e. based on the 0% value for the enzyme control."}, "collagenase": {"test_system": "collagenase", "conditions": "as reported in Thromb. Res. 1977, 10(4), 605-11; cited from earlier work"}, "[2]": {"test_system": "Gingival Crevicular Fluid Collagenase", "assay": "Crevicular Fluid Assay (gingival crevicular fluid collagenase degrading 14C-collagen fibrils)", "type": "biochemical, human", "conditions": "Diseased crevicular fluid + 30 mcg./ml. of compound; about 90 hours at 37°C.; diseased fluid alone 66 ± 9; p<0.0005", "description": "as §1\nSince studies by Golub, et al., Dental Res., 55, 1049 (1976) have shown that the crevicular collagenase plays a major role in the degradation of collagen in periodontal tissue, the effect of test compounds on collagen degradation by this system was examined. A volunteer with diagnosed periodontal disease was used. […] After one minute, the filter paper strip was removed and the volume of the gingival crevicular fluid was measured with the aid of the Periotron (Harco Electronics, Ltd., Winnipeg, Canada). The volume of the fluid gathered from the crevice by the filter paper strip is translated by a unique transducer onto a digital readout screen. […] After reading on the meter, 1 µl. of trypsin (1.5 µg./ml.) was added to the filter paper (to activate any latent collagenase present) and after five minutes at room temperature 1 pI. of aprotonin was added. […] The tubes were centrifuged as described above and a 200 µl. aliquot of the clear supernatant was assayed for radioactivity."}, "[3]": {"test_system": "fibroblast collagenase and leukocyte neutral protease", "assay": "Enzymatic Degradation of Collagen of Human Gingiva (hydroxyproline content of residual tissue)", "type": "biochemical", "conditions": "36 hours at 37°C., enzymes alone 102.3", "method": "The test compounds are able to inhibit the degradation of collagen of gingival tissue. Dried pieces of human gingiva were incubated at 37°C. for 36 hours with fibroblast collagenase and leukocyte neutral protease in the presence of test compound (30 and 50 µg./ml.). Antibiotics were present to prevent bacterial growth. After incubation, the residual tissue was hydrolyzed in 6N hydrochloric acid and the hydroxy-proline content (collagen) was determined. When collagenase and neutral protease were added to human gingiva, approximately 100 µg of collagen/mg. dry tissue was digested. If the test compound was present, degradation of gingival collagen was inhibited."}, "[4]": {"test_system": "neutral proteases derived from human leukocytes", "assay": "Leukocyte Neutral Proteases Inhibitor Assay (3H/35S labeled proteoglycans entrapped in polyacrylamide beads)", "type": "biochemical", "conditions": "for Percent Inhibition of Neutral Protease Activity ^3H: 3H label; for Percent Inhibition of Neutral Protease Activity ^35S: 35S label", "method": "as §1\nThis assay system contained (total volume of 1 ml.) 60 mM Tris-CI, pH 7.4; 2.5 mM calcium chloride; 2.5 mM magnesium chloride; 2 mg. (dry weight) of polyacrylamide beads entrapped with labeled proteoglycans, and an aliquot of the leukocyte neutral protease preparation. The reaction mixture was incubated at 37°C. for 30 minutes in a shaking water bath. The reaction was terminated by the addition of 0.2 mi. of 5% SDS in 5% HCI (v/v). After five minutes at room temperature the mixture was centrifuged and the clear supernatant (0.6 ml.) was assayed for radioactivity. To determine the effect of the test compounds on degradation of proteoglycans by neutral proteases, various concentrations of the compounds were added to the reaction mixture. Appropriate blanks were included."}, "[5]": {"conditions": "DMA = Dimethylacetamide, read-out: % Inhibition of Collagenase (DMA)"}, "[6]": {"conditions": "compound in distilled water, 16 hours at 37°C., repeat determinations, read-out: % Inhibition of Collagenase"}, "[7]": {"conditions": "compound in distilled water, 16 hours at 37°C., repeat determinations"}}, "note": "Several values for one entry are separate records, joined by “and”; a condition that tells them apart may be missing. Equal values may be shown once. Where a name gives a salt, the structure may show the parent alone. Read-outs that look alike come from different tables or passages of the source."}
{"smiles": "O=C(Nc1ccc(C(=O)Nc2ccc3cc(S(=O)(=O)O)cc(O)c3c2)cc1)Nc1ccc(C(=O)Nc2ccc3cc(S(=O)(=O)O)cc(O)c3c2)cc1", "note": "[6,6'-[Ureylenebis(p-phenylenecarbonylimino)]bis[4-hydroxy-2-naphthalenesulfonic acid acid], disodium salt]", "values": [{"measurement": "inhibition at 30 µg/mL", "setting": "[1]; [5]", "result": 96, "unit": "%"}, {"measurement": "inhibition at 30 µg/mL", "setting": "[1]; [6]", "result": 86, "unit": "%"}]}
{"smiles": "Cc1ccc(C(=O)Nc2ccc(S(=O)(=O)O)c3cc(S(=O)(=O)O)cc(S(=O)(=O)O)c23)cc1NC(=O)c1cccc(NC(=O)Nc2cccc(C(=O)Nc3cc(C(=O)Nc4ccc(S(=O)(=O)O)c5cc(S(=O)(=O)O)cc(S(=O)(=O)O)c45)ccc3C)c2)c1", "note": "[Suramin]", "values": [{"measurement": "inhibition of the activity of collagenase", "setting": "collagenase", "result": "not inhibiting the action of collagenase"}]}
{"smiles": "O=C(Nc1ccc(C(=O)Nc2ccc3cc(S(=O)(=O)O)cc(O)c3c2)cc1)Nc1ccc(C(=O)Nc2ccc3cc(S(=O)(=O)O)cc(O)c3c2)cc1", "note": "[6,6-'Ureylenebis(p-phenylenecarbonylimino)bis[4-hydroxy-2-naphthalenesulfonic acid]-tetrasodium salt]", "values": [{"measurement": "% Inhibition of Collagenase", "setting": "[1]; [7]", "result": 92, "unit": "%"}]}
{"smiles": "Cc1cc(-c2ccc(/N=N/c3c(S(=O)(=O)O)cc4cc(S(=O)(=O)O)cc(N)c4c3O)c(C)c2)ccc1/N=N/c1c(S(=O)(=O)O)cc2cc(S(=O)(=O)O)cc(N)c2c1O", "note": "[trypan blue]", "values": [{"measurement": "inhibition of the activity of collagenase", "setting": "collagenase", "result": "inhibiting the activity of collagenase, or a proteinase contaminant in the collagenase preparation"}]}
{"smiles": "Cc1ccc(C(=O)Nc2ccc3cc(S(=O)(=O)O)cc(O)c3c2)cc1NC(=O)Nc1cc(C(=O)Nc2ccc3cc(S(=O)(=O)O)cc(O)c3c2)ccc1C", "note": "[6,6'-[Ureylenebis(4-methyl-3,1-phenylene)carbonyliminolbis[4-hydroxy-2-naphthalenesulfonic acid]-disodium salt]", "values": [{"measurement": "inhibition at 30 µg/mL", "setting": "[1]; [6]", "result": 73, "unit": "%"}]}
{"smiles": "O=C(Nc1cccc(C(=O)Nc2ccc3cc(S(=O)(=O)O)cc(O)c3c2)c1)Nc1cccc(C(=O)Nc2ccc3cc(S(=O)(=O)O)cc(O)c3c2)c1", "note": "[6,6'-[Ureylenebis(3,1-phenyl-enecarbonylimino)]bis[4-hydroxy] [6,6'-[Ureylenebis(m-phenylenecarbonylimino)]bis[4-hydroxy-2-naphthalenesulfonic acid]disodium salt]", "values": [{"measurement": "cpm Collagen Degraded/Unit Periotron Reading", "setting": "[2]", "result": "16 ± 6", "unit": "cpm"}, {"measurement": "mcg. of Collagen degraded per mg. of dry gingiva", "setting": "[3]; neutral proteases plus 30 mcg./ml. of compound", "result": "60.4 mcg. per mg. of dry gingiva"}, {"measurement": "mcg. of Collagen degraded per mg. of dry gingiva", "setting": "[3]; neutral proteases plus 50 mcg./ml. of compound", "result": "27.4 mcg. per mg. of dry gingiva"}, {"measurement": "% Inhibition of Collagenase", "setting": "[1]; [7]", "result": "92% and 69%"}, {"measurement": "Percent Inhibition of Neutral Protease Activity ^3H", "setting": "[4]; 0.5 mcg./ml.", "result": 0, "unit": "%"}, {"measurement": "Percent Inhibition of Neutral Protease Activity ^35S", "setting": "[4]; 0.5 mcg./ml.", "result": 0, "unit": "%"}, {"measurement": "Percent Inhibition of Neutral Protease Activity ^3H", "setting": "[4]; 1.0 mcg./ml.", "result": 17, "unit": "%"}, {"measurement": "Percent Inhibition of Neutral Protease Activity ^35S", "setting": "[4]; 1.0 mcg./ml.", "result": 31, "unit": "%"}, {"measurement": "Percent Inhibition of Neutral Protease Activity ^3H", "setting": "[4]; 2.0 mcg./ml.", "result": 21, "unit": "%"}, {"measurement": "Percent Inhibition of Neutral Protease Activity ^35S", "setting": "[4]; 2.0 mcg./ml.", "result": 37, "unit": "%"}, {"measurement": "Percent Inhibition of Neutral Protease Activity ^3H", "setting": "[4]; 5.0 mcg./ml.", "result": 47, "unit": "%"}, {"measurement": "Percent Inhibition of Neutral Protease Activity ^35S", "setting": "[4]; 5.0 mcg./ml.", "result": 74, "unit": "%"}, {"measurement": "Percent Inhibition of Neutral Protease Activity ^3H", "setting": "[4]; 10.0 mcg./ml.", "result": 63, "unit": "%"}, {"measurement": "Percent Inhibition of Neutral Protease Activity ^35S", "setting": "[4]; 10.0 mcg./ml.", "result": 91, "unit": "%"}]}
{"smiles": "O=C(Nc1cccc(C(=O)Nc2ccc3cc(S(=O)(=O)O)cc(O)c3c2)c1)Nc1cccc(C(=O)Nc2ccc3cc(S(=O)(=O)O)cc(O)c3c2)c1", "note": "[6,6'-[Ureylenebis(m-phenylenecarbonylimino)]bis[4-hydroxy-2-naphthalenesulfonic acid]disodium salt]", "values": [{"measurement": "inhibition at 30 µg/mL", "setting": "[1]; [5]", "result": 81, "unit": "%"}]}
{"smiles": "O=C(Nc1cccc(C(=O)Nc2ccc(S(=O)(=O)O)c3cccc(O)c23)c1)Nc1cccc(C(=O)Nc2ccc(S(=O)(=O)O)c3cccc(O)c23)c1", "note": "[4,4'-[Ureylenebis(m-phenylenecarbonylimino)]bis-5-hydroxy-1-2-naphthalen,3sulfonic acid, disodium salt]", "values": [{"measurement": "% Inhibition of Collagenase", "setting": "[1]; compound in distilled water, 16 hours at 37°C., repeat determinations, disodium salt", "result": "84% and 69% and 60% and 55%"}]}
